# Patent US10000488B2, “Heterocyclic compound” (TAKEDA PHARMACEUTICAL COMPANY LIMITED, priority 2014, dated 2018)
# Structures can show the parent of a compound that is named as a salt.
# Experiments:
# [1] = target: T1, RORγt (Homo sapiens, UniProt P51449); test: RORγt binding test using fluorescent-labeled synthetic ligand (TR-FRET); conditions: test compound 1 μM; read-out: binding inhibitory rate (%) of fluorescent-labeled synthetic ligand to RORγt at test compound 1 μM
# T1 sequence (P51449 1-497 isoform P51449-2): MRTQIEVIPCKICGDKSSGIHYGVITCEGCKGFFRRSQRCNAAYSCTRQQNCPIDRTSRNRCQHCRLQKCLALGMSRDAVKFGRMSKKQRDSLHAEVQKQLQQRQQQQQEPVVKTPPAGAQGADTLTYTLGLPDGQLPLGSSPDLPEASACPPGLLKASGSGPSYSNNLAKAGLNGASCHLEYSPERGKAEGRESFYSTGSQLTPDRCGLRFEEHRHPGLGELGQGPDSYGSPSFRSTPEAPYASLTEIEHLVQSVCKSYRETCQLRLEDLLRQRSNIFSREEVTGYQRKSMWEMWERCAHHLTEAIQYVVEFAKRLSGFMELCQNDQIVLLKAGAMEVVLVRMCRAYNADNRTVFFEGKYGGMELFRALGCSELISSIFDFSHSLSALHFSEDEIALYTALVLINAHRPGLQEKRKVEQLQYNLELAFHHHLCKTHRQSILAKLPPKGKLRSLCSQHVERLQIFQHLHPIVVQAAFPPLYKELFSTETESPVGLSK
# Method: RORγt Binding Test Using Fluorescent-Labeled Synthetic Ligand
# The binding activity of the test compound to RORγt was measured by a time resolved fluorescence resonance energy transfer (TR-FRET) utilizing histidine-tagged RORγt, fluorescent-labeled synthetic ligand, and terbium-labeled anti-histidine tag antibody (Invitrogen). First, a test compound diluted with an assay buffer (20 mM Tris-HCl (pH 7.5), 100 mM NaCl, 1 mM DTT, 0.1% BSA) was added to a 384 well plate by 3 μL. Then, RORγt diluted with an assay buffer to 240 nM was added by 3 μL, after which fluorescent-labeled synthetic ligand diluted with the assay buffer to 12 μM was added by 3 μL, and the mixture was stood at room temperature for 20 min. Thereafter, a terbium-labeled anti-histidine tag antibody diluted with the assay buffer to 8 nM was added by 3 μL. The mixture was stood at room temperature for 20 min, and fluorescence intensity (excitation wavelength 320 nm, fluorescence wavelength 520 nm, delay time 100 microseconds) was measured by Envision (PerkinElmer).
# [2] = target: T1, RORγt; test: Cofactor recruitment test (Alpha Screen, biotinylated SRC-1 peptide); format: biochemical; conditions: read-out: signal value inhibitory rate (%) at test compound 1 μM
# Method: Cofactor Recruitment Test
# Cofactor recruitment test was performed by Alpha Screen (Histidine Detection Kit, PerkinElmer) method. First, a test compound was diluted with an assay buffer (50 mM Tris-HCl (pH 7.5), 50 mM KCl, 1 mM DTT, 0.1% BSA) and added to a 384 well plate by 5 μL. […] The mixture was stood in a dark place for 1 hr, and the signal value was measured by Envision (PerkinElmer).
# [3] = target: T1, RORγt; test: Jurkat reporter test (human IL-17 ROR response element luciferase reporter, RORγt vector); format: cell-based; conditions: test compound 3 μM; Jurkat cells; read-out: luminescence level inhibitory rate (%) at test compound 3 μM
# Method: The Jurkat cells used for the reporter test were cultured in a culture medium (RPMI (Invitrogen), 10% FCS (AusGeneX), 100 U/mL penicillin, 100 μg/mL streptomycin). On the day of the test, 4×10^7 cells were recovered by a centrifugal operation (1000 rpm, for 5 min) and suspended in PBS (phosphate buffered saline) (Invitrogen). Thereafter, the cells were recovered again by a centrifugal operation, and suspended in 2 mL of R buffer (NEON transfection kit, Invitrogen). […] Gene transfer was performed by Electroporation apparatus (NEON, Invitrogen) under the conditions of pulse voltage 1350 V, interval 10 milliseconds, number of times 3. The cells after gene transfer were suspended in 40 mL of a reaction medium (RPMI, 10% Lipid reduced FCS (HyClone), 10 mM HEPES (pH 7.5), 100 U/mL penicillin, 100 μg/mL streptomycin, 5 μM lovastatin), and plated in a 96 well plate by 90 μL. A test compound diluted with the reaction medium was added by 10 μL, and the cells were cultured overnight in an incubator. Bright-Glo (Promega) was added by 100 μL, and the mixture was stirred at room temperature for 10 min, and the luminescence level was measured by Envision (PerkinElmer).
Compound,inhibition at 1 µM [1] [%],inhibition at 1 µM [2] [%],inhibition at 3 µM [3] [%]
"CC(C)n1c(=O)n(CC2CC2(F)F)c(=O)c2cc(NC(=O)N3CCOC(C(=O)Nc4cnc(C#N)c(Cl)c4)C3)c(F)cc21 (mixture of isomers) [Example 356, (2R)—N^2-(5-chloro-6-cyanopyridin-3-yl)-N^4-(3-((2,2-difluorocyclopropyl)methyl)-7-fluoro-1-isopropyl-2,4-dioxo-1,2,3,4-tetrahydroquinazolin-6-yl)morpholine-2,4-dicarboxamide (mixture of two stereoisomers)]",102,108,107
"CC(C)n1c(=O)n(CC2CC2(F)F)c(=O)c2cc(NC(=O)N3CCOC(C(=O)Nc4ccc(C#N)c(Cl)c4)C3)c(F)cc21 (single isomer, unassigned) [Example 366, (2R)—N^2-(3-chloro-4-cyanophenyl)-N^4-(3-(((1R or 1S)-2,2-difluorocyclopropyl)methyl)-7-fluoro-1-isopropyl-2,4-dioxo-1,2,3,4-tetrahydroquinazolin-6-yl)morpholine-2,4-dicarboxamide (one stereoisomer, quinazolinedione: derived from tR1)]",102,105,108
"CC(C)n1c(=O)n(CC2CC2(F)F)c(=O)c2cc(NC(=O)N3CCCC(n4cnc5cc(C#N)ccc5c4=O)C3)c(F)cc21 (mixture of isomers) [Example 360, (3R)-3-(7-cyano-4-oxoquinazoline-3(4H)-yl)-N-(3-((2,2-difluorocyclopropyl)methyl)-7-fluoro-1-isopropyl-2,4-dioxo-1,2,3,4-tetrahydroquinazolin-6-yl)piperidine-1-carboxamide (mixture of two stereoisomers)]",101,105,107
"COc1ccc(C(=O)N[C@@H]2CCCN(C(=O)Nc3ccc4c(c3)c(=O)n(CC3CC3)c(=O)n4C(C)C)C2)cc1 [Example 244, (3R)-N-(3-(cyclopropylmethyl)-1-isopropyl-2,4-dioxo-1,2,3,4-tetrahydroquinazolin-6-yl)-3-((4-methoxybenzoyl)amino)piperidine-1-carboxamide]",102,105,104
"CC(C)n1c(=O)n(CC2CC(F)(F)C2)c(=O)c2cc(NC(=O)N3CCO[C@@H](C(=O)Nc4ccc(C#N)c(Cl)c4)C3)c(F)cc21 [Example 350, (2R)—N^2-(3-chloro-4-cyanophenyl)-N^4-(3-((3,3-difluorocyclobutyl)methyl)-7-fluoro-1-isopropyl-2,4-dioxo-1,2,3,4-tetrahydroquinazolin-6-yl)morpholine-2,4-dicarboxamide]",102,108,107
"CC(C)n1c(=O)n(CC2CC2)c(=O)c2cc(NC(=O)N3CCC[C@@H](NC(=O)c4ccc(C#N)cc4F)C3)ccc21 [Example 219, (3R)-3-((4-cyano-2-fluorobenzoyl)amino)-N-(3-(cyclopropylmethyl)-1-isopropyl-2,4-dioxo-1,2,3,4-tetrahydroquinazolin-6-yl)piperidine-1-carboxamide]",102,110,101

# More lines, now with the values ahead:
inhibition at 1 µM [1] [%],inhibition at 1 µM [2] [%],inhibition at 3 µM [3] [%],Compound
102,110,103,"Cc1cc(C(=O)N[C@@H]2CCCN(C(=O)Nc3ccc4c(c3)c(=O)n(CC3CC3)c(=O)n4C(C)C)C2)ccc1C#N [Example 249, (3R)-3-((4-cyano-3-methylbenzoyl)amino)-N-(3-(cyclopropylmethyl)-1-isopropyl-2,4-dioxo-1,2,3,4-tetrahydroquinazolin-6-yl)piperidine-1-carboxamide]"
102,108,103,"CC(C)n1c(=O)n(CC2CC2)c(=O)c2cc(NC(=O)N3CCC[C@@H](N4Cc5ccc(C#N)cc5C4=O)C3)c(F)cc21 [Example 323, (3R)-3-(6-cyano-1-oxo-1,3-dihydro-2H-isoindol-2-yl)-N-(3-(cyclopropylmethyl)-7-fluoro-1-isopropyl-2,4-dioxo-1,2,3,4-tetrahydroquinazolin-6-yl)piperidine-1-carboxamide]"
101,112,103,"CC(C)n1c(=O)n(CC2CC2)c(=O)c2cc(NC(=O)N3CCO[C@@H](C(=O)Nc4cnc(C#N)c(Cl)c4)C3)ccc21 [Example 122, (2R)-N^2-(5-chloro-6-cyanopyridin-3-yl)-N^4-(3-(cyclopropylmethyl)-1-isopropyl-2,4-dioxo-1,2,3,4-tetrahydroquinazolin-6-yl)morpholine-2,4-dicarboxamide]"
102,108,102,"CC(C)n1c(=O)n(CC2CC2)c(=O)c2cc(NC(=O)N3CCO[C@@H](C(=O)Nc4cc(F)c(C#N)cc4F)C3)ccc21 [Example 168, (2R)-N^2-(4-cyano-2,5-difluorophenyl)-N^4-(3-(cyclopropylmethyl)-1-isopropyl-2,4-dioxo-1,2,3,4-tetrahydroquinazolin-6-yl)morpholine-2,4-dicarboxamide]"
102,102,102,"Cc1ccc(F)c(C(=O)N[C@@H]2CCCN(C(=O)Nc3ccc4c(c3)c(=O)n(CC3CC3)c(=O)n4C(C)C)C2)c1 [Example 259, (3R)-N-(3-(Cyclopropylmethyl)-1-isopropyl-2,4-dioxo-1,2,3,4-tetrahydroquinazolin-6-yl)-3-((2-fluoro-5-methylbenzoyl)amino)piperidine-1-carboxamide]"
101,95,103,"CC(C)n1c(=O)n(CC2CC2)c(=O)c2cc(NC(=O)N3CCC[C@@H](NC(=O)c4ccc(CNC(=O)OC(C)(C)C)cc4)C3)c(F)cc21 [Example 319, tert-Butyl (4-(((3R)-1-((3-(cyclopropylmethyl)-7-fluoro-1-isopropyl-2,4-dioxo-1,2,3,4-tetrahydroquinazolin-6-yl)carbamoyl)piperidin-3-yl)carbamoyl)benzyl)carbamate]"
102,107,103,"CC(C)n1c(=O)n(CC2CC2)c(=O)c2cc(NC(=O)N3CCC[C@@H](NC(=O)c4ccc(Cl)cc4)C3)ccc21 [Example 247, (3R)-3-((4-chlorobenzoyl)amino)-N-(3-(cyclopropylmethyl)-1-isopropyl-2,4-dioxo-1,2,3,4-tetrahydroquinazolin-6-yl)piperidine-1-carboxamide]"
102,103,103,"CC(C)n1c(=O)n(CC2CC2)c(=O)c2cc(NC(=O)N3CCNC(C(=O)Nc4ccc(C#N)c(F)c4)C3)ccc21 (stereo not drawn) [Example 92, N^3-(4-cyano-3-fluorophenyl)-N^1-(3-(cyclopropylmethyl)-1-isopropyl-2,4-dioxo-1,2,3,4-tetrahydroquinazolin-6-yl)piperazine-1,3-dicarboxamide hydrochloride]"
101,102,103,"CC(C)n1c(=O)n(CC2CC2)c(=O)c2cc(NC(=O)N3CCO[C@@H](C(=O)Nc4cnc(C#N)c(F)c4)C3)ccc21 [Example 103, (2R)-N^2-(6-cyano-5-fluoropyridin-3-yl)-N^4-(3-(cyclopropylmethyl)-1-isopropyl-2,4-dioxo-1,2,3,4-tetrahydroquinazolin-6-yl)morpholine-2,4-dicarboxamide]"
